Measured values reported in patent publication US12577228B2, “Dihydrocyclopenta-isoquinoline-sulfonamide derivatives compounds” (UCB Biopharma SRL, priority 2019, dated 2026).

Biological target: T1, IgE-Tb / soluble IgE receptor FcεRIα with a Y131A mutation (Homo sapiens, UniProt P01854, N146Q/N252Q)
T1 construct: fused on or other part: Terbium chelate (LanthaScreen amine-reactive) on IgE-Fc; Alexa Fluor 488 hydrazide on the oxidised glycans of sFcεRIα; Both are labels and no part of the key
Experiment: in vitro FRET assay: binding of IgE-Tb to receptor FcεRIα-Y131A-AF488 and its inhibition by compounds
Details: 5 nM IgE-Tb, 25 nM FcεRIα-Y131A-AF488, 2 hours at room temperature; read-out: FRET IC50 range

T1 sequence (P01854 104-427 N146Q/N252Q): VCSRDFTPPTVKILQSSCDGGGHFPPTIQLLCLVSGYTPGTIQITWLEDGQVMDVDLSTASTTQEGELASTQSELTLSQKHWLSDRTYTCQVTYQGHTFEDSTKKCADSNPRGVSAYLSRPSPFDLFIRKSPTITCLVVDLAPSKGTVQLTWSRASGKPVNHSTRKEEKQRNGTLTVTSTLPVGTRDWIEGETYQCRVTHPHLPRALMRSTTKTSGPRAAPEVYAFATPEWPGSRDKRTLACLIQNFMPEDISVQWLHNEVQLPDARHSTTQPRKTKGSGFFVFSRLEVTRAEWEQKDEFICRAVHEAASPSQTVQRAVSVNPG
T1 sequence (P12319 26-201 Y156A partner): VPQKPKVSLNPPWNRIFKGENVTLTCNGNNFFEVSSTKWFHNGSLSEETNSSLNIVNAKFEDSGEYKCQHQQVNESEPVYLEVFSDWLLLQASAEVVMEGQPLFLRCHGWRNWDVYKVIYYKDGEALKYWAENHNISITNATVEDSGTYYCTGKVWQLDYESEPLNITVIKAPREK

First: CC(=O)Nc1c2c(c(S(=O)(=O)NCC(C)C)c3cc(C4CC4)ncc13)CCC2 [Example 22, N-[3-cyclopropyl-5-(2-methylpropylsulfamoyl)-7,8-dihydro-6H-cyclopenta[g]isoquinolin-9-yl]acetamide]
Second: CCNC(=O)NC1Cc2cc3cnc(C4CC4)cc3c(S(=O)(=O)NCC(C)C)c2C1 (centres unmarked) [Example 44, 1-[3-cyclopropyl-5-(2-methylpropylsulfamoyl)-7,8-dihydro-6H-cyclopenta[g]isoquinolin-7-yl]-3-ethylurea]
The IC50 of the first is higher: 100 to 2000 nM for the first, 10 to 50 nM for the second. The second is the more potent here.

CC(C)(F)CNS(=O)(=O)c1c2c(cc3c(F)nc(C4CC4)cc13)CC(Nc1ccc(C(N)=O)nc1)C2 (centres unmarked) [Example 23, 5-[[3-cyclopropyl-1-fluoro-5-[(2-fluoro-2-methyl-propyl)sulfamoyl]-7,8-dihydro-6H-cyclopenta[g]isoquinolin-7-yl]amino]pyridine-2-carboxamide] and COC(=O)c1ccc(NC2Cc3cc4c(F)nc(C5CC5)cc4c(S(=O)(=O)NCC(C)(C)F)c3C2)cn1 (centres unmarked) [Example 24, methyl 5-[[3-cyclopropyl-1-fluoro-5-[(2-fluoro-2-methyl-propyl)sulfamoyl]-7,8-dihydro-6H-cyclopenta[g]isoquinolin-7-yl]amino]pyridine-2-carboxylate] fall in the same range of IC50: 10 to 50 nM for the first, 10 to 50 nM for the second.

First: COc1nc(C2CC2)cc2c(S(=O)(=O)NCC(C)(C)F)c3c(cc12)CC(Nc1ccc(C2(O)COC2)nc1)C3 (centres unmarked) [Example 26, 3-cyclopropyl-N-(2-fluoro-2-methylpropyl)-7-[[6-(3-hydroxyoxetan-3-yl)pyridin-3-yl]amino]-1-methoxy-7,8-dihydro-6H-cyclopenta[g]isoquinoline-5-sulfonamide]
Second: CC(C)(F)CNS(=O)(=O)c1c2c(cc3cnc(C4CC4)cc13)C[C@@H](Nc1ccc(C3(O)COC3)nc1)C2 [Example 38, (7R)-3-cyclopropyl-N-(2-fluoro-2-methylpropyl)-7-[[6-(3-hydroxyoxetan-3-yl)pyridin-3-yl]amino]-7,8-dihydro-6H-cyclopenta[g]isoquinoline-5-sulfonamide]
The IC50 of the first is higher: 100 to 2000 nM for the first, 10 to 50 nM for the second.

First: CC(C)(F)CNS(=O)(=O)c1c2c(cc3cnc(C4CC4)cc13)CC(Nc1ccc(N3CC(C)(O)C3)nc1)C2 (centres unmarked) [Example 27, 3-cyclopropyl-N-(2-fluoro-2-methylpropyl)-7-[[6-(3-hydroxy-3-methylazetidin-1-yl)pyridin-3-yl]amino]-7,8-dihydro-6H-cyclopenta[g]isoquinoline-5-sulfonamide]
Second: CC(C)(F)CNS(=O)(=O)c1c2c(cc3cnc(C4CC4)cc13)C[C@@H](Nc1ccc(Cl)nc1)C2 [Example 32, (7R)-7-[(6-chloropyridin-3-yl)amino]-3-cyclopropyl-N-(2-fluoro-2-methylpropyl)-7,8-dihydro-6H-cyclopenta[g]isoquinoline-5-sulfonamide]
The IC50 of the first is higher: 100 to 2000 nM for the first, 10 to 50 nM for the second. The second is the more potent here.

COc1ccc(NC2Cc3cc4cnc(C5CC5)cc4c(S(=O)(=O)NCC(C)(C)F)c3C2)nn1 (centres unmarked) [Example 28, 3-cyclopropyl-N-(2-fluoro-2-methylpropyl)-7-[(6-methoxypyridazin-3-yl)amino]-7,8-dihydro-6H-cyclopenta[g]isoquinoline-5-sulfonamide] and CC(C)(F)CNS(=O)(=O)c1c2c(cc3cnc(C4CC4)cc13)CC(Nc1ccc(S(C)(=N)=O)nc1)C2 (centres unmarked) [Example 35, 3-cyclopropyl-N-(2-fluoro-2-methylpropyl)-7-[[6-(methylsulfonimidoyl)pyridin-3-yl]amino]-7,8-dihydro-6H-cyclopenta[g]isoquinoline-5-sulfonamide] fall in the same range of IC50: 10 to 50 nM for the first, 10 to 50 nM for the second.

Cn1ncc(NC2Cc3cc4c(F)nc(C5CC5)cc4c(S(=O)(=O)NCC(C)(C)F)c3C2)cc1=O (centres unmarked) [Example 29, 3-cyclopropyl-1-fluoro-N-(2-fluoro-2-methyl-propyl)-7-[(1-methyl-6-oxo-pyridazin-4-yl)amino]-7,8-dihydro-6H-cyclopenta[g]isoquinoline-5-sulfonamide] and CC(C)(F)CNS(=O)(=O)c1c2c(cc3cnc(C4CC4)cc13)C[C@@H](Nc1ccc(C(C)(C)O)nc1)C2 [Example 39, (7R)-3-cyclopropyl-N-(2-fluoro-2-methylpropyl)-7-[[6-(2-hydroxypropan-2-yl)pyridin-3-yl]amino]-7,8-dihydro-6H-cyclopenta[g]isoquinoline-5-sulfonamide] fall in the same range of IC50: 10 to 50 nM for the first, 10 to 50 nM for the second.

First: CC(C)(F)CNS(=O)(=O)c1c2c(cc3cnc(C4CC4)cc13)C[C@@H](Nc1cnc(C3(O)COC3)nc1)C2 [Example 30, (7R)-3-cyclopropyl-N-(2-fluoro-2-methylpropyl)-7-[[2-(3-hydroxyoxetan-3-yl)pyrimidin-5-yl]amino]-7,8-dihydro-6H-cyclopenta[g]isoquinoline-5-sulfonamide]
Second: Cc1nc(-c2ccc(N[C@@H]3Cc4cc5cnc(C6CC6)cc5c(S(=O)(=O)NCC(C)(C)F)c4C3)cn2)no1 [Example 31, (7R)-3-cyclopropyl-N-(2-fluoro-2-methylpropyl)-7-[[6-(5-methyl-1,2,4-oxadiazol-3-yl)pyridin-3-yl]amino]-7,8-dihydro-6H-cyclopenta[g]isoquinoline-5-sulfonamide]
The IC50 of the first is higher: 10 to 50 nM for the first, 1 to 10 nM for the second. The second is the more potent here.

Cc1ccc2c(C(=O)N[C@@H]3Cc4cc5cnc(C6CC6)cc5c(S(=O)(=O)NCC(C)(C)F)c4C3)c[nH]c2c1 [Example 33, N-[(7R)-3-cyclopropyl-5-[(2-fluoro-2-methylpropyl)sulfamoyl]-7,8-dihydro-6H-cyclopenta[g]isoquinolin-7-yl]-6-methyl-1H-indole-3-carboxamide] and CC(C)(F)CNS(=O)(=O)c1c2c(cc3cnc(C4CC4)cc13)C[C@@H](NC(=O)c1ccc3[nH]nnc3c1)C2 [Example 34, N-[(7R)-3-cyclopropyl-5-[(2-fluoro-2-methylpropyl)sulfamoyl]-7,8-dihydro-6H-cyclopenta[g]isoquinolin-7-yl]-1H-benzotriazole-5-carboxamide] fall in the same range of IC50: 10 to 50 nM for the first, 10 to 50 nM for the second.

Cc1noc(-c2ccc(N[C@@H]3Cc4cc5cnc(C6CC6)cc5c(S(=O)(=O)NCC(C)(C)F)c4C3)cn2)n1 [Example 36, (7R)-3-cyclopropyl-N-(2-fluoro-2-methylpropyl)-7-[[6-(3-methyl-1,2,4-oxadiazol-5-yl)pyridin-3-yl]amino]-7,8-dihydro-6H-cyclopenta[g]isoquinoline-5-sulfonamide] and Cc1nnc(-c2ccc(N[C@@H]3Cc4cc5cnc(C6CC6)cc5c(S(=O)(=O)NCC(C)(C)F)c4C3)cn2)o1 [Example 37, (7R)-3-cyclopropyl-N-(2-fluoro-2-methylpropyl)-7-[[6-(5-methyl-1,3,4-oxadiazol-2-yl)pyridin-3-yl]amino]-7,8-dihydro-6H-cyclopenta[g]isoquinoline-5-sulfonamide] fall in the same range of IC50: 1 to 10 nM for the first, 1 to 10 nM for the second.

Compared with CC(C)(F)CNS(=O)(=O)c1c2c(cc3cnc(C4CC4)cc13)CC(NC1=CS(=O)(=O)CC1)C2 (centres unmarked) [Example 40, 3-cyclopropyl-7-[(1,1-dioxo-2,3-dihydrothiophen-4-yl)amino]-N-(2-fluoro-2-methylpropyl)-7,8-dihydro-6H-cyclopenta[g]isoquinoline-5-sulfonamide], Cc1ccc(S(=O)(=O)c2cncc(N[C@@H]3Cc4cc5cnc(C6CC6)cc5c(S(=O)(=O)NCC(C)(C)F)c4C3)c2)cn1 [Example 43, (7R)-3-cyclopropyl-N-(2-fluoro-2-methylpropyl)-7-[[5-(6-methylpyridin-3-yl)sulfonylpyridin-3-yl]amino]-7,8-dihydro-6H-cyclopenta[g]isoquinoline-5-sulfonamide] is lower in IC50: 100 to 2000 nM for the first, 10 to 50 nM for the second. The second is the more potent here.
